Measurements as given in US20250340557A1, “PYRIMIDINE DERIVATIVE” (ASKA PHARMACEUTICAL CO., LTD., priority 2022, published 2025).

These compounds were tested against T1, human mPGES-1 (Homo sapiens, UniProt O14684) (assay: Test for mPGES-1 inhibitory activity (microsomal enzyme, PGE2 EIA)). Details: microsomes from COS-1 cells transfected with human mPGES-1 cDNA; substrate PGH2 1 μM; 4° C., 4 minutes; PGE2 measured by EIA; read-out: h mPGES1 IC50.
T1 construct: made in house; host or cells: COS-1 cells (transient transfection; microsomal fraction used as enzyme)
T1 sequence (O14684 1-152): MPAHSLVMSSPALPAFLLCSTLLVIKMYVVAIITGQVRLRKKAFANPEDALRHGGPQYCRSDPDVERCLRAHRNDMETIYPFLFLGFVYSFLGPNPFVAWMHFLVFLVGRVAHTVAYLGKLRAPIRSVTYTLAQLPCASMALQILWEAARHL
Assay type: biochemical
Procedure, shortened: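 IC50 values were derived from EIA-quantified PGE2 after a 4 min, 4 °C reaction with PGH2 at 1 μM final, stopped with ferric chloride/citric acid. Beforehand, compound (2% DMSO final) sat 15 min at 4 °C with human mPGES-1 microsomes from transiently transfected COS-1 cells. Buffer was sodium phosphate pH 7.2 containing 2.5 mM reduced glutathione and 1 mM EDTA.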

Q: How did the IC50 turn out when `Cc1nc(-c2c(C(F)(F)F)ccc(CNC(=O)C3CCN(c4ccc(Cl)cc4)CC3)c2F)[nH]c(=O)c1F` [Example 77, 1-(4-chlorophenyl)-N-[2-fluoro-3-(5-fluoro-4-methyl-6-oxo-1,6-dihydropyrimidin-2-yl)-4-(trifluoromethyl)benzyl]piperidine-4-carboxamide] was run?
A: 16 nM

Q: `Cc1nc(-c2c(C(F)(F)F)ccc(CNC(=O)[C@H]3CC[C@H](OCc4ccc(F)cc4F)CC3)c2F)[nH]c(=O)c1F` [Example 126, trans-4-[(2,4-difluorobenzyl)oxy]-N-[2-fluoro-3-(5-fluoro-4-methyl-6-oxo-1,6-dihydropyrimidin-2-yl)-4-(trifluoromethyl)benzyl]cyclohexane-1-carboxamide] was tested. Which IC50 did it give?
A: < 1 nM

Q: Which IC50 does the source give for `O=C(NCc1ccc(C(F)(F)F)c(-c2nc(C(F)(F)F)cc(=O)[nH]2)c1F)C1CCN(c2cccc(C(F)(F)F)c2)CC1` [Example 67, N-{2-fluoro-3-[6-oxo-4-(trifluoromethyl)-1,6-dihydropyrimidin-2-yl]-4-(trifluoromethyl)benzyl}-1-[3-(trifluoromethyl)phenyl]piperidine-4-carboxamide] here?
A: < 1 nM

Q: Which IC50 does the source give for `O=c1cc(C(F)(F)F)nc(-c2c(C(F)(F)F)ccc(CNC(=O)[C@H]3CC[C@H](OCc4ccc(F)cc4F)CC3)c2F)[nH]1` [Example 114, trans-4-[(2,4-difluorobenzyl)oxy]-N-{2-fluoro-3-[6-oxo-4-(trifluoromethyl)-1,6-dihydropyrimidin-2-yl]-4-(trifluoromethyl)benzyl}cyclohexane-1-carboxamide] here?
A: 5.2 nM

Q: `CCc1nc(-c2c(C(F)(F)F)ccc(CNC(=O)[C@H]3CC[C@H](OCc4ccc(F)cc4F)CC3)c2F)[nH]c(=O)c1F` [Example 132, trans-4-[(2,4-difluorobenzyl)oxy]-N-[3-(4-ethyl-5-fluoro-6-oxo-1,6-dihydropyrimidin-2-yl)-2-fluoro-4-(trifluoromethyl)benzyl]cyclohexane-1-carboxamide] was tested. Which IC50 did it give?
A: 21 nM

Q: How did the IC50 turn out when `O=c1cc(C(F)F)nc(-c2c(C(F)(F)F)ccc(CNC(=O)[C@H]3CC[C@H](OCc4ccccc4Cl)CC3)c2F)[nH]1` [Example 103, trans-4-[(2-chlorobenzyl)oxy]-N-{3-[4-(difluoromethyl)-6-oxo-1,6-dihydropyrimidin-2-yl]-2-fluoro-4-(trifluoromethyl)benzyl}cyclohexane-1-carboxamide] was run?
A: < 1 nM

Q: How did the IC50 turn out when `Cc1cc(=O)[nH]c(-c2c(C(F)(F)F)ccc(CNC(=O)C3CCN(c4ncc(C(F)(F)F)cc4F)CC3)c2F)n1` [Example 49, N-[2-fluoro-3-(4-methyl-6-oxo-1,6-dihydropyrimidin-2-yl)-4-(trifluoromethyl)benzyl]-1-[3-fluoro-5-(trifluoromethyl)pyridin-2-yl]piperidine-4-carboxamide] was run?
A: 21 nM

Q: `O=C(NCc1ccc(C(F)(F)F)c(-c2nc(C(F)(F)F)cc(=O)[nH]2)c1F)C1CN(c2cccc(C(F)(F)F)n2)C1` [Example 26, N-{2-fluoro-3-[6-oxo-4-(trifluoromethyl)-1,6-dihydropyrimidin-2-yl]-4-(trifluoromethyl)benzyl}-1-[6-(trifluoromethyl)pyridin-2-yl]azetidine-3-carboxamide] was tested. Which IC50 did it give?
A: 4.1 nM

Q: `Cc1cc(=O)[nH]c(-c2c(C(F)(F)F)ccc(CNC(=O)C3CCN(c4cccc(C(F)(F)F)c4)CC3)c2F)n1` [Example 94, N-[2-fluoro-3-(4-methyl-6-oxo-1,6-dihydropyrimidin-2-yl)-4-(trifluoromethyl)benzyl]-1-[3-(trifluoromethyl)phenyl]piperidine-4-carboxamide] was tested. Which IC50 did it give?
A: 13 nM

Q: For `O=C(NCc1ccc(C(F)(F)F)c(-c2nc(C(F)(F)F)cc(=O)[nH]2)c1F)C1CN(c2ccc(C(F)(F)F)cn2)C1` [Example 25, N-{2-fluoro-3-[6-oxo-4-(trifluoromethyl)-1,6-dihydropyrimidin-2-yl]-4-(trifluoromethyl)benzyl}-1-[5-(trifluoromethyl)pyridin-2-yl]azetidine-3-carboxamide], which IC50 is on record?
A: < 1 nM

Q: `Cc1cc(=O)[nH]c(-c2c(C(F)(F)F)ccc(CNC(=O)[C@H]3CC[C@H](OCc4cc(F)cc(F)c4)CC3)c2F)n1` [Example 120, trans-4-[(3,5-difluorobenzyl)oxy]-N-[2-fluoro-3-(4-methyl-6-oxo-1,6-dihydropyrimidin-2-yl)-4-(trifluoromethyl)benzyl]cyclohexane-1-carboxamide] was tested. Which IC50 did it give?
A: 11 nM

Q: Which IC50 does the source give for `O=C(NCc1ccc(C(F)(F)F)c(-c2nc(C(F)(F)F)cc(=O)[nH]2)c1F)C1CCN(c2cccc(OC(F)(F)F)c2)CC1` [Example 74, N-{2-fluoro-3-[6-oxo-4-(trifluoromethyl)-1,6-dihydropyrimidin-2-yl]-4-(trifluoromethyl)benzyl}-1-[3-(trifluoromethoxy)phenyl]piperidine-4-carboxamide] here?
A: < 1 nM

Q: `Cc1cccc2ccc(N3CCC(C(=O)NCc4ccc(Cl)c(-c5nccc(=O)[nH]5)c4)CC3)nc12` [Example 8, N-[4-chloro-3-(6-oxo-1,6-dihydropyrimidin-2-yl)benzyl]-1-(8-methylquinolin-2-yl)piperidine-4-carboxamide] was tested. Which IC50 did it give?
A: 0.64 nM

Q: How did the IC50 turn out when `O=C(NCc1ccc(C(F)(F)F)c(-c2nc(C(F)(F)F)cc(=O)[nH]2)c1F)C1CCN(c2ccc(Cl)c(F)c2)CC1` [Example 81, 1-(4-chloro-3-fluorophenyl)-N-{2-fluoro-3-[6-oxo-4-(trifluoromethyl)-1,6-dihydropyrimidin-2-yl]-4-(trifluoromethyl)benzyl}piperidine-4-carboxamide] was run?
A: 5 nM

Q: `Cc1nc(-c2c(C(F)(F)F)ccc(CNC(=O)C3CCN(c4ncc(Cl)cc4Cl)CC3)c2F)[nH]c(=O)c1F` [Example 44, 1-(3,5-dichloropyridin-2-yl)-N-[2-fluoro-3-(5-fluoro-4-methyl-6-oxo-1,6-dihydropyrimidin-2-yl)-4-(trifluoromethyl)benzyl]piperidine-4-carboxamide] was tested. Which IC50 did it give?
A: < 1 nM

Same assay, conditions: microsomes of COS-1 cells transfected with human mPGES-1 cDNA; PGH2 1 μM; 4° C., 4 minutes; PGE2 by EIA; read-out: h mPGES1 IC50

Q: With `O=c1cc(C(F)F)nc(-c2c(C(F)(F)F)ccc(CNC(=O)[C@H]3C[C@H](OCc4cccc(F)c4F)C3)c2F)[nH]1` [Example 172, trans-3-[(2,3-difluorobenzyl)oxy]-N-{3-[4-(difluoromethyl)-6-oxo-1,6-dihydropyrimidin-2-yl]-2-fluoro-4-(trifluoromethyl)benzyl}cyclobutane-1-carboxamide] as the compound, how does the IC50 read?
A: < 1 nM

Q: Which IC50 does the source give for `Cc1nc(-c2c(C(F)(F)F)ccc(CNC(=O)[C@H]3C[C@H](OCc4cccc(Cl)c4F)C3)c2F)[nH]c(=O)c1F` [Example 225, trans-3-[(3-chloro-2-fluorobenzyl)oxy]-N-[2-fluoro-3-(5-fluoro-4-methyl-6-oxo-1,6-dihydropyrimidin-2-yl)-4-(trifluoromethyl)benzyl]cyclobutane-1-carboxamide] here?
A: < 1 nM

Q: How did the IC50 turn out when `O=c1cc(C(F)F)nc(-c2c(C(F)(F)F)ccc(CNC(=O)[C@H]3C[C@H](OCc4ccccc4C(F)(F)F)C3)c2F)[nH]1` [Example 164, trans-N-{3-[4-(difluoromethyl)-6-oxo-1,6-dihydropyrimidin-2-yl]-2-fluoro-4-(trifluoromethyl)benzyl}-3-{[2-(trifluoromethyl)benzyl]oxy}cyclobutane-1-carboxamide] was run?
A: < 1 nM

Q: Which IC50 does the source give for `Cc1nc(-c2c(C(F)(F)F)ccc(CNC(=O)[C@H]3C[C@H](OCc4cccc(Cl)c4)C3)c2F)[nH]c(=O)c1F` [Example 213, trans-3-[(3-chlorobenzyl)oxy]-N-[2-fluoro-3-(5-fluoro-4-methyl-6-oxo-1,6-dihydropyrimidin-2-yl)-4-(trifluoromethyl)benzyl]cyclobutane-1-carboxamide] here?
A: 11 nM

Q: How did the IC50 turn out when `CCc1cc(=O)[nH]c(-c2c(C(F)(F)F)ccc(CNC(=O)[C@H]3C[C@H](OCc4cc(F)cc(F)c4)C3)c2F)n1` [Example 204, trans-3-[(3,5-difluorobenzyl)oxy]-N-[3-(4-ethyl-6-oxo-1,6-dihydropyrimidin-2-yl)-2-fluoro-4-(trifluoromethyl)benzyl]cyclobutane-1-carboxamide] was run?
A: 13 nM

Q: `CCc1cc(=O)[nH]c(-c2c(C(F)(F)F)ccc(CNC(=O)[C@H]3C[C@H](OCc4ccc(F)c(Cl)c4)C3)c2F)n1` [Example 210, trans-3-[(3-chloro-4-fluorobenzyl)oxy]-N-[3-(4-ethyl-6-oxo-1,6-dihydropyrimidin-2-yl)-2-fluoro-4-(trifluoromethyl)benzyl]cyclobutane-1-carboxamide] was tested. Which IC50 did it give?
A: 7.9 nM

Q: `CCc1nc(-c2c(C(F)(F)F)ccc(CNC(=O)[C@H]3C[C@H](OCc4ccc(C(F)(F)F)cc4)C3)c2F)[nH]c(=O)c1F` [Example 234, trans-N-[3-(4-ethyl-5-fluoro-6-oxo-1,6-dihydropyrimidin-2-yl)-2-fluoro-4-(trifluoromethyl)benzyl]-3-{[4-(trifluoromethyl)benzyl]oxy}cyclobutane-1-carboxamide] was tested. Which IC50 did it give?
A: < 1 nM

Q: For `CCc1nc(-c2c(C(F)(F)F)ccc(CNC(=O)[C@H]3C[C@H](OCc4ccc(F)c(F)c4)C3)c2F)[nH]c(=O)c1F` [Example 237, trans-3-[(3,4-difluorobenzyl)oxy]-N-[3-(4-ethyl-5-fluoro-6-oxo-1,6-dihydropyrimidin-2-yl)-2-fluoro-4-(trifluoromethyl)benzyl]cyclobutane-1-carboxamide], which IC50 is on record?
A: < 1 nM

Q: Which IC50 does the source give for `O=c1cc(C(F)(F)F)nc(-c2c(C(F)(F)F)ccc(CNC(=O)[C@H]3C[C@H](OCc4ccc(F)cc4Cl)C3)c2F)[nH]1` [Example 154, trans-3-[(2-chloro-4-fluorobenzyl)oxy]-N-{2-fluoro-3-[6-oxo-4-(trifluoromethyl)-1,6-dihydropyrimidin-2-yl]-4-(trifluoromethyl)benzyl}cyclobutane-1-carboxamide] here?
A: < 1 nM
